Reference: patent publication EP1192131B1, “METHOD OF INHIBITING AMYLOID PROTEIN AGGREGATION AND IMAGING AMYLOID DEPOSITS USING ISOINDOLINE DERIVATIVES” (Warner-Lambert Company LLC, priority 1999, dated 2000)
pIC50: −log10 of the molar value. Where “and” joins values, the source holds several entries; their conditions need not be identical. Equal entries are not always repeated. Where two headings read alike, the source gives them in different places.

What was measured:
[1] = target: T1, Aβ (1-40) peptide (Homo sapiens, UniProt P05067); experiment: BAPA (Beta-Amyloid Peptide Aggregation, pH 6.0), filtration endpoint assay; format: biochemical
T1 construct: 10 µL 0.5 mg/mL Aβ (1-40) peptide in 20% HFIP
T1 sequence (P05067 672-711): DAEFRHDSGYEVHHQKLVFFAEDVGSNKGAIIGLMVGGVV
Method: BAPA (Beta-Amyloid Peptide Aggregation
This assay is used to provide a measure of inhibition by a compound against the aggregation behavior of the beta amyloid peptide.
The purpose of this assay is to provide a higher volume method of assaying the amount of beta amyloid aggregation using an endpoint assay based on filtration. In this assay, hexafluoroisopropanol (HFIP) is used to break down the initial amyloid peptide to a monomer state and use a concentration of 33 µM which is high enough so that aggregation will occur at pH 6.0 in several hours.
β-Amyloid Peptide Aggregation. pH 6 0 (BAPA)
In a 96-well plate (Costar 3794), we add 25 µL 50 mM Phosphate Buffer, pH 6.0, 10 µL 0.5 mg/mL Aβ (1-40) peptide in 20% HFIP + 0.1 µL/assay radioiodinated ^125I Aβ (1-40) [^125I Aβ(1-40)], and 1 µL of the compound to be tested starting at 50 mM with a concentration of DMSO <1%. Then, we incubate for 2 to 4 hours at room temperature. We stop the reaction with 200 µL of 50 mM phosphate buffer, pH 6.0, and filter it through a 0.2 µm 96-well filter plate (Millipore MAGU N22) We wash the filter plate with 100 µL of the same phosphate buffer. Aggregation was detected on a Microbeta counter after impregnating the filters with Meltilex (1450-441) and is corrected for background

[2] = target: Aβ(1-40) (Homo sapiens, UniProt P05067); experiment: BASST (Beta-Amyloid Self-seeding, ThioflavinT), inhibition of self-seeded amyloid fibril growth; format: biochemical; parameters: 30 µM soluble Aβ (1-40) in deionized water in assay buffer; conditions: 30 µM soluble Aβ (1-40), 37°C, 3 to 5 hours, thioflavin T fluorescence, letter in parentheses = lot of compound (no letter = Lot P); for IC50: read-out: BASST IC50 (converted); for pIC50: read-out: BASST IC50
Sequence of Aβ(1-40) (P05067 672-711): as above
Method: BASST (Beta-Amyloid Self-seeding, ThioflavinT)
An assay for inhibitors of self-seeded amyloid fibril growth
Assay Buffer - 50 mM sodium phosphate, pH 7.5, 100 mM NaCl, 0.02% NaN3, 1 M urea (filter and store at 4°C).
Soluble Aβ (1-40) - 2.2 mg/mL in deionized H2O (store in aliquots at -20°C, keep on ice when thawed) will self-seed after 1 week storage. Typically, the solution should be stored until no lag phase is seen in the assay.
Final assay conditions: 30 µM soluble Aβ (1-40) in deionized water in assay buffer. Compound to be tested is dissolved in DMSO, typically 5-50 mM stock, such that the final concentration of DMSO is <1% v/v in the assay.
Assay: Reaction mixture for 50 assays (on ice) comprised of 1 µL of soluble Aβ (1-40) + 13.5 µL assay buffer per assay. The following are the amounts of the components of the reaction mixture that result in each of the 50 assay wells. 50 µL soluble Aβ (1-40) 675 µL assay buffer
• 1) Prepare the reaction mix above by mixing the components and storing on ice. • 2) Pipet 14.5 µL of reaction mixture into each of 50 wells of a polystyrene U-bottom 96-well microtiter plate (Coming 25881-96) on ice. • 3) Add 1.7 µL of diluted compound to be tested to each well in a column of eight, including solvent control. Serial 3-fold dilutions from 1 mM (100 µM final) in assay buffer -urea = 7 dilutions + zero. Each 96-well plate can therefore accommodate 11 samples + 1 Congo Red control (0.039-5 µM final in 2-fold steps). • 4) Seal the plate with aluminum film and incubate for 10 minutes on ice. • 5) Raise the temperature to 37°C and incubate for 3 to 5 hours (depends on the lot of the peptide). • 6) Remove the aluminum film and add 250 µL/well of 5 µM thioflavin T (ThT) [T-3516, Sigma-Aldrich] in 50 mM glycine-NaOH, pH 8.5. Read fluorescence on a plate reader (ex = 440 nm/20 nm; em = 485 nm/20 nm) within 5 minutes.

[3] = Aβ (1-40) 33 µM, pH 6.0, 2 to 4 hours at room temperature; letter in parentheses = lot of compound (no letter = Lot P); read-out: BAPA IC50
[4] = read-out: BAPA IC50; Aβ (1-40) 33 µM, pH 6.0, 2 to 4 hours at room temperature; letter in parentheses = lot of compound (no letter = Lot P)

| Compound | pIC50 [1, 3] | IC50 [2] | pIC50 [1, 4] | pIC50 [2] |
| --- | --- | --- | --- | --- |
| 2-[2-(3,4-Dimethylphenyl)-2,3-dihydro-1H-isoindol-5-ylamino]benzoic acid [Example 9] | 4.89 | 1.5 µM | – | – |
| 2-[2-(3-chlorophenyl)-2,3-dihydro-1H-isoindol-5-ylamino]benzoic acid [Example 7] | 4.55 | 1.1 µM | – | – |
| 2-[2-(4-chlorophenyl)-2,3-dihydro-1H-isoindol-5-ylamino]benzoic acid [Example 8] | 4.72 | 1 µM | – | – |
| O=C(O)c1ccccc1Nc1ccc2c(c1)CN(c1ccc(Cl)c(Cl)c1)C2 [Example 4, 2-[2-(3,4-Dichlorophenyl)-2,3-dihydro-1H-isoindol-5-ylamino]benzoic acid] | 4.00 and < 4.00 and 4.03 | 2 µM | – | – |
| COc1cc(Nc2ccc3c(c2)CN(c2ccc(Cl)c(Cl)c2)C3)c(C(=O)O)cc1[N+](=O)[O-] [Example 6, 2-[2-(3,4-Dichlorophenyl)-2,3-dihydro-1H-isoindol-5-ylamino]-4-methoxy-5-nitro-benzoic acid] | 4.85 | 1 µM and 1.5 µM | – | – |
| O=C(O)c1ccccc1Nc1ccc2c(c1)CN(c1ccc(Cl)c(C(F)(F)F)c1)C2 [Example 10, 2-[2-(4-Chloro-3-trifluoromethylphenyl)-2,3-dihydro-1H-isoindol-5-ylamino]benzoic acid] | – | – | 4.80 | 5.52 |
| Cc1ccc(N2Cc3ccc(Nc4ccc([N+](=O)[O-])cc4C(=O)O)cc3C2)cc1C [Example 12, 2-[2-(3,4-Dimethyl-phenyl)-2,3-dihydro-1H-isoindol-5-ylamino]-5-nitro-benzoic acid] | 5.30 | 1.1 µM | – | – |
| O=C(O)c1cc([N+](=O)[O-])ccc1Nc1ccc2c(c1)CN(c1ccc(Cl)cc1)C2 [Example 15, 2-[2-(4-Chloro-phenyl)-2,3-dihydro-1H-isoindol-5-ylamino]-5-nitro-benzoic acid] | < 4.00 | 0.6 µM | – | – |
| Clc1ccc(N2Cc3ccc(Nc4ccccc4-c4nnn[nH]4)cc3C2)cc1Cl [Example 16, [2-(3,4-Dichloro-phenyl)-2,3-dihydro-1H-isoindol-5-yl]-[2-(1H-tetrazol-5-yl)-phenyl]-amine] | 4.07 | 1.8 µM | – | – |
| Nc1ccc(Nc2ccc3c(c2)CN(c2ccc(Cl)c(Cl)c2)C3)c(C(=O)O)c1 [Example 17, 5-Amino-2-[2-(3,4-dichloro-phenyl)-2,3-dihydro-1H-isoindol-5-ylamino]-benzoic acid] | 4.40 | 1.5 µM | – | – |
| O=C(O)c1cc([N+](=O)[O-])ccc1Nc1ccc2c(c1)CN(c1ccccc1)C2 [Example 18, 5-Nitro-2-(2-phenyl-2,3-dihydro-1H-isoindol-5-ylamino)-benzoic acid] | 4.01 | 0.9 µM and 1 µM and 0.6 µM | – | – |
| O=C(O)c1cc([N+](=O)[O-])ccc1Nc1ccc2c(c1)CN(c1ccc(Cl)c(C(F)(F)F)c1)C2 [Example 19, 2-[2-(4-Chloro-3-trifluoromethyl-phenyl)-2,3-dihydro-1H-isoindol-5-ylamino]-5-nitro-benzoic acid] | – | – | < 5.00 | 6.00 |
| O=C(O)c1cc([N+](=O)[O-])ccc1Nc1ccc2c(c1)CN(c1cccc(F)c1)C2 [Example 20, 2-[2-(3-Fluoro-phenyl)-2,3-dihydro-1H-isoindol-5-ylamino]-5-nitro-benzoic acid] | < 4.22 | 2 µM | – | – |
| COc1cccc(N2Cc3ccc(Nc4ccc([N+](=O)[O-])cc4C(=O)O)cc3C2)c1 [Example 21, 2-[2-(3-Methoxy-phenyl)-2,3-dihydro-1H-isoindol-5-ylamino]-5-nitro-benzoic acid] | < 4.22 | 0.7 µM | – | – |
| O=C(O)c1ccccc1Nc1ccc2c(c1)CN(c1cccc(F)c1)C2 [Example 22, 2-[2-(3-Fluoro-phenyl)-2,3-dihydro-1H-isoindol-5-ylamino]-benzoic acid] | < 4.22 | 6 µM and 2 µM | – | – |
| O=C(O)c1cc(F)ccc1Nc1ccc2c(c1)CN(c1ccc(Cl)c(Cl)c1)C2 [Example 23, 2-[2-(3,4-Dichloro-phenyl)-2,3-dihydro-1H-isoindol-5-ylamino]-5-fluoro-benzoic acid] | 4.21 | 3 µM and 2 µM (2×) | – | – |
| COc1cc(N2Cc3ccc(Nc4ccccc4C#N)cc3C2)cc(OC)c1OC [Example 25, 2-[2-(3,4,5-Trimethoxy-phenyl)-2,3-dihydro-1H-isoindol-5-ylamino]-benzonitrile] | 4.60 | 15 µM | – | – |
| COc1cccc(N2Cc3ccc(Nc4ccccc4C(=O)O)cc3C2)c1 [Example 26, 2-[2-(3-Methoxy-phenyl)-2,3-dihydro-1H-isoindol-5-ylamino]-benzoic acid] | < 4.22 | 10 µM | – | – |
